# ChEMBL document CHEMBL5036322 (J Med Chem, 2021)
# The source made the active and inactive calls. No cut-off for these calls is given here.
# Key:
# [1] = target: Protein cereblon/DNA damage-binding protein 1 (Homo sapiens, UniProt Q96SW2)
# [2] = target: Protein cereblon/Eukaryotic peptide chain release factor GTP-binding subunit ERF3A (Homo sapiens, UniProt P15170+Q96SW2); test: PROTAC activity at human CRBN/HiBiT-fused GSPT1 transfected in HEK293T cells assessed as induction of GSPT1 degradation measured after 4 hrs by Nano-Glo HiBiT lytic assay; format: cell-based
# [3] = Apparent permeability of the compound in dog MDCKII-MDR1 cells measured after 1 hr; format: ADME, cell-based, Canis lupus familiaris; conditions: mdck-mdr1, 1 h
# [4] = Aqueous solubility of the compound incubated for 18 hrs at pH 7.4 by UV spectrum based analysis; format: physicochemical
# MV4-11 [5] = test: Antiproliferative activity against human MV4-11 cells assessed as reduction in cell viability measured after 3 days by CellTiter-Glo assay; format: functional, cell-based; conditions: for EC50: MV4-11, 72 h
# [6] = target: T1, Protein cereblon/Eukaryotic peptide chain release factor GTP-binding subunit ERF3A (Homo sapiens, UniProt Q96SW2+P15170); conditions: mhhcall4
# Target sequence in this assay (Q96SW2 whole entry): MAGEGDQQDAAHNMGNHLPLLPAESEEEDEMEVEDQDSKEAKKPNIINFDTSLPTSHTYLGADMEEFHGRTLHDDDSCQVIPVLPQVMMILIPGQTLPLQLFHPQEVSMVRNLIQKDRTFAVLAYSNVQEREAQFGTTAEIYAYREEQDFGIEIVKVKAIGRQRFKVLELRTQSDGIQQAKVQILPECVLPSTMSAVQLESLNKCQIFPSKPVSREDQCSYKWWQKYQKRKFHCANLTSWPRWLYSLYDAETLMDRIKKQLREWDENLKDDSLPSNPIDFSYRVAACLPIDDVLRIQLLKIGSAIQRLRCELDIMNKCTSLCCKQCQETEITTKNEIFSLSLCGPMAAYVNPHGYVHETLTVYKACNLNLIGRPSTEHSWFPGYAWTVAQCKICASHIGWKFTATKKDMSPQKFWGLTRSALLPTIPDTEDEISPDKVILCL
# Target sequence in this assay (P15170 whole entry): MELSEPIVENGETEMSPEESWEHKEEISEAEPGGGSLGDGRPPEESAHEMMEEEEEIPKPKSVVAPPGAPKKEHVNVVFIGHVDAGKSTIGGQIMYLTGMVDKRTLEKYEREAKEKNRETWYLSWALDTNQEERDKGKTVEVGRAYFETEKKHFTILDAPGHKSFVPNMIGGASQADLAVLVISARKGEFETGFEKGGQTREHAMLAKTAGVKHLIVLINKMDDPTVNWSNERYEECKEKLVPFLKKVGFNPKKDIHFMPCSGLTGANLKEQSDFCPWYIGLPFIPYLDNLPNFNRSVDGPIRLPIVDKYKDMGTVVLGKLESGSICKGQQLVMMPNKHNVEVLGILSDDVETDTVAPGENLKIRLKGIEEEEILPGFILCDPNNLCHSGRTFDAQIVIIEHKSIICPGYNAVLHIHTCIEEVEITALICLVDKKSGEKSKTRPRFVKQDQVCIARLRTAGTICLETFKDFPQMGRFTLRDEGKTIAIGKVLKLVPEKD
# MV4-11 [7] = test: Antiproliferative activity against human MV4-11 cells assessed as reduction in cell viability measured after 3 days in presence of CRBN ligand, lenalidomide by CellTiter-Glo assay; format: functional, cell-based; conditions: time 3.0 day
# MV4-11 [8] = test: PROTAC activity at CRBN/GSPT2 in human MV4-11 cells assessed as induction of GSPT2 degradation at 1 uM measured after 4 hrs by tandem mass tag mass spectrometry analysis; format: cell-based
# [9] = target: T1, Protein cereblon/Eukaryotic peptide chain release factor GTP-binding subunit ERF3A; conditions: MV4-11, dose 100.0 nM, time 4.0 hrs
# Target sequence in this assay (P15170 whole entry, looked up): as the sequence (P15170 whole entry) above
# Target sequence in this assay (Q96SW2 whole entry, looked up): as the sequence (Q96SW2 whole entry) above
# [10] = Protein binding in human plasma at 10 uM incubated for 4 hrs by UHPLC-MS/MS analysis; format: ADME, cell-free
# MV4-11 [11] = format: cell-based; conditions: Homo sapiens, dose 1-10 µM, time 24.0 hrs
# [12] = Protein binding in mouse plasma at 10 uM incubated for 4 hrs by UHPLC-MS/MS analysis; format: ADME, cell-free
# Homo sapiens = species on record: Homo sapiens; test: Induction of His-tagged CRBN/DDB1/biotin-tagged IKZF1 (unknown origin) ternary complex formation incubated for 90 mins by AlphaScreen assay
# MV4-11 [13] = test: Induction of apoptosis in human MV4-11 cells assessed as caspase activation at 10 to 100 nM measured after 8 hrs by luminescent Caspase-Glo assay; format: functional, cell-based; conditions: dose 10-100 nM
# [14] = Half life in human liver microsomes measured upto 240 mins in presence of NADPH regenerating system by UHPLC-MS/MS analysis; format: ADME, Microsome; conditions: 4 h
# MV4-11 [15] = test: Antiproliferative activity against CRBN knock-out human MV4-11 cells assessed as reduction in cell viability measured after 3 days by CellTiter-Glo assay; format: functional, cell-based; conditions: time 3.0 day
# [16] = (§1) Antiproliferative activity against human MB004 cells harboring TP53 mutation at codon 274 GTT-TGT assessed as reduction in cell viability measured after 3 days by CellTiter-Glo assay; format: functional, cell-based; conditions: MB004, 72 h
# MV4-11 [17] = test: PROTAC activity at CRBN/SERPINF1 in human MV4-11 cells assessed as induction of SERPINF1degradation at 1 uM measured after 4 hrs by tandem mass tag mass spectrometry analysis; format: cell-based
# [18] = Half life in CD-1 mouse liver microsomes measured upto 240 mins in presence of NADPH regenerating system by UHPLC-MS/MS analysis; format: ADME, Microsome; conditions: 4 h
# [19] = Cytotoxicity against human PBMC assessed as reduction in cell viability
# MV4-11 [20] = test: Antiproliferative activity against human MV4-11 cells transfected with FLAG-tagged GSPT1 G575N mutant assessed as reduction in cell viability measured after 3 days by CellTiter-Glo assay; format: functional, cell-based; conditions: time 3.0 day
# [21] = (§2) Antiproliferative activity against human MHHCALL4 cells harboring CRLF2-rearranged JAK2 mutation assessed as reduction in cell viability measured after 3 days by CellTiter-Glo assay; format: functional, cell-based; conditions: MHHCALL4, 72 h
# MV4-11 [22] = test: PROTAC activity at CRBN/FLAG-tagged GSPT1 G575N mutant transfected in human MV4-11 cells assessed as induction of GSPT1 mutant degradation at 1 to 10 uM measured after 24 hrs by immunoblot analysis; format: cell-based; conditions: dose 1-10 µM
# [23] = (§3) Antiproliferative activity against human HD-MB03 cells assessed as reduction in cell viability measured after 3 days by CellTiter-Glo assay; format: functional, cell-based; conditions: HD-MB03, 72 h
# MV4-11 [24] = test: Induction of apoptosis in human MV4-11 cells assessed as caspase activation at 10 to 100 nM measured after 24 hrs by luminescent Caspase-Glo assay; format: functional, cell-based; conditions: dose 10-100 nM
# [25] = target: T1, Protein cereblon/Eukaryotic peptide chain release factor GTP-binding subunit ERF3A; conditions: MV4-11, dose 100.0 nM, time 24.0 hrs
# Target sequence in this assay (P15170 whole entry, looked up): as the sequence (P15170 whole entry) above
# Target sequence in this assay (Q96SW2 whole entry, looked up): as the sequence (Q96SW2 whole entry) above
# MB004 = test: as §1; format: functional, cell-based; conditions: time 3.0 day
# MHHCALL4 = test: as §2; format: functional, cell-based; conditions: time 3.0 day
# HD-MB03 = test: as §3; format: functional, cell-based; conditions: time 3.0 day
# Chain of Protein cereblon/DNA damage-binding protein 1 (Q96SW2 whole entry, the tested form may be a part): as the sequence (Q96SW2 whole entry) above
# Chain of Protein cereblon/DNA damage-binding protein 1 (Q16531 whole entry, further chain, the tested form may be a part): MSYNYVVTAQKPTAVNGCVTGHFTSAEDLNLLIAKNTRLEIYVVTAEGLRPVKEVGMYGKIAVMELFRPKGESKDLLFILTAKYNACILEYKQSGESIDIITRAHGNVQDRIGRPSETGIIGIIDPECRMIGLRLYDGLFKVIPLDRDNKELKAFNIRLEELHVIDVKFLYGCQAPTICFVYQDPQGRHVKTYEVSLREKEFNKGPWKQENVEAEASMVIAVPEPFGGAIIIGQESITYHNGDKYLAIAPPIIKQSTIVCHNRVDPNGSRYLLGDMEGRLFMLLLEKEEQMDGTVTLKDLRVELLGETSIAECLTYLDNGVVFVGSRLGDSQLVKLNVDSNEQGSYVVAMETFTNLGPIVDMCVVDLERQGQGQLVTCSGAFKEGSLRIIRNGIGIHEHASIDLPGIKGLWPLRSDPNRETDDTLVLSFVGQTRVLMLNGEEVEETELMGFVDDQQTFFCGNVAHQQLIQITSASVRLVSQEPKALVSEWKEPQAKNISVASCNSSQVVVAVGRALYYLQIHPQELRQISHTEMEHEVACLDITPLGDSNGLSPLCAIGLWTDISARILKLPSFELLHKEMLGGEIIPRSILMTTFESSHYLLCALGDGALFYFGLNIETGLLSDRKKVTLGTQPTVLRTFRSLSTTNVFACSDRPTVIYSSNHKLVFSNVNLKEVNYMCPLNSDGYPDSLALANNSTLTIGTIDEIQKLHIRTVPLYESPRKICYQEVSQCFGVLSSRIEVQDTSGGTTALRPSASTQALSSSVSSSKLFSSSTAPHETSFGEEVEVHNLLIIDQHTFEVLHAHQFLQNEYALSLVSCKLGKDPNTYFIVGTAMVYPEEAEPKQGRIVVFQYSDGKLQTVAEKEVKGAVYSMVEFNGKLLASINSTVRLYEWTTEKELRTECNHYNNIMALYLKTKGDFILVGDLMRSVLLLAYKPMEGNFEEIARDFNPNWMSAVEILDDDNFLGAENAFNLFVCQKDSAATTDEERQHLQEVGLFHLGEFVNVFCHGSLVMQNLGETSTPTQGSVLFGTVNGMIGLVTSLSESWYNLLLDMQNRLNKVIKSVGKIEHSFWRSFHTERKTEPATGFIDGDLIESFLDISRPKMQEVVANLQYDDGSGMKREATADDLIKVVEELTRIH
# Chain of Protein cereblon/Eukaryotic peptide chain release factor GTP-binding subunit ERF3A (Homo sapiens, UniProt P15170+Q96SW2) (Q96SW2 whole entry, the tested form may be a part): as the sequence (Q96SW2 whole entry) above
# Chain of Protein cereblon/Eukaryotic peptide chain release factor GTP-binding subunit ERF3A (Homo sapiens, UniProt P15170+Q96SW2) (P15170 whole entry, the tested form may be a part): as the sequence (P15170 whole entry) above
SMILES,EC50 [2],Papp [3],solubility at 18 h [4],EC50 (MV4-11 [5]),IC50 [1],Activity [19],other results
O=C1CCC(N2C(=O)c3ccc(NS(=O)(=O)c4ccccc4OC(F)(F)F)cc3C2=O)C(=O)N1 (stereo not given),–,2.3 ×10⁻⁶ cm/s,67 µM,1.5 nM,–,Toxic,DC50 [6]: Not Active; Activity (MV4-11 [7]): inactive; Activity (MV4-11 [8]): Active; Emax [9]: 90%; PPB [10]: 99.1%; Activity (MV4-11 [11]): inactive; PPB [12]: 99.3%; Activity (Homo sapiens): inactive; Activity (MV4-11 [13]): Active; t1/2 [14]: 5.7 h; Activity (MV4-11 [15]): inactive; EC50 [16]: 336 nM; Activity (MV4-11 [17]): Active; t1/2 [18]: 4.7 h; Activity (MV4-11 [20]): inactive; EC50 [21]: 0.4 nM; Activity (MV4-11 [22]): inactive; EC50 [23]: 3580 nM
O=C1CCC(N2Cc3cc(CNC(=O)C(F)(F)c4ccc(Cl)cc4)ccc3C2=O)C(=O)N1 (stereo not given),–,4.9 ×10⁻⁶ cm/s,77 µM,62 nM,–,Toxic,–
Cc1c(Cl)cccc1S(=O)(=O)Nc1ccc2c(c1)C(=O)N(C1CCC(=O)NC1=O)C2=O (stereo not given),–,3.6 ×10⁻⁶ cm/s,64 µM,–,–,Toxic,Activity (MV4-11 [7]): inactive; Activity (MV4-11 [11]): inactive; Activity (Homo sapiens): inactive; Activity (MV4-11 [15]): inactive; EC50 [16]: 1100 nM; Activity (MV4-11 [20]): inactive; EC50 [21]: 4.4 nM; Activity (MV4-11 [24]): Active; Activity (MV4-11 [22]): inactive; Emax [25]: 90%; EC50 [23]: > 8000 nM
Cc1ccc(NC(=O)NCc2ccc3c(c2)CN(C2CCC(=O)NC2=O)C3=O)cc1Cl (stereo not given),–,–,–,–,18 nM,Toxic,Activity (MB004): Active; Activity (MHHCALL4): Active; Activity (MV4-11 [5]; time 3.0 day): Active; Activity (HD-MB03): Active
O=C1CCC(N2C(=O)c3ccc(NS(=O)(=O)c4ccccc4C(F)(F)F)cc3C2=O)C(=O)N1 (stereo not given),52 nM,1.4 ×10⁻⁶ cm/s,66 µM,89 nM,337 nM,–,–

# Further lines, with some results ahead:
EC50 [2],Papp [3],solubility at 18 h [4],EC50 (MV4-11 [5]),SMILES,IC50 [1],Activity [19],other results
> 10000 nM,1.1 ×10⁻⁶ cm/s,76 µM,> 10000 nM,O=C1CCC(N2C(=O)c3ccc(NS(=O)(=O)c4ccc(OC(F)(F)F)cc4)cc3C2=O)C(=O)N1 (stereo not given),9 nM,–,–
> 10000 nM,0.6 ×10⁻⁶ cm/s,85 µM,> 10000 nM,COc1ccccc1S(=O)(=O)Nc1ccc2c(c1)C(=O)N(C1CCC(=O)NC1=O)C2=O (stereo not given),612 nM,–,–
> 10000 nM,1.7 ×10⁻⁶ cm/s,74 µM,> 10000 nM,O=C1CCC(N2C(=O)c3ccc(NS(=O)(=O)c4cccc(Cl)c4)cc3C2=O)C(=O)N1 (stereo not given),23 nM,–,–
> 10000 nM,3.6 ×10⁻⁶ cm/s,71 µM,> 10000 nM,O=C1CCC(N2C(=O)c3ccc(NS(=O)(=O)c4ccccc4)cc3C2=O)C(=O)N1 (stereo not given),3 nM,–,–
> 10000 nM,4 ×10⁻⁶ cm/s,64 µM,> 10000 nM,O=C1CCC(N2C(=O)c3ccc(NS(=O)(=O)c4cccc(OC(F)(F)F)c4)cc3C2=O)C(=O)N1 (stereo not given),10 nM,–,–
9320 nM,6.8 ×10⁻⁶ cm/s,84 µM,7400 nM,Cc1ccccc1S(=O)(=O)Nc1ccc2c(c1)C(=O)N(C1CCC(=O)NC1=O)C2=O (stereo not given),11 nM,–,–
> 10000 nM,4.6 ×10⁻⁶ cm/s,–,> 10000 nM,Cc1ccc(S(=O)(=O)Nc2ccc3c(c2)C(=O)N(C2CCC(=O)NC2=O)C3=O)cc1Cl (stereo not given),1 nM,–,–
